Source: patent publication US20260263651A1, “WOUND DRESSING” (UNIVERSITY OF SUNDERLAND, priority 2023, published 2026)

Experiments:
Type in all cases: cell-based
Staphylococcus aureus [1] = test: Microbiological evaluation of overnight bacteria suspensions, modified alginate wound dressing with absorbed substrate on agar; conditions: SA overnight culture, 24 h incubation at 37° C.
Description: (§1) ACTIVHEAL® simply A (10×20 cm) non-adhesive foam samples were provided by Advanced Medical Solutions Ltd. The wound dressings were cut into ~5-10×5-10 mm squares, using an ethanol washed pair of scissors. A maximum of 0.20 g of the material was added into 10 mL DI water, and the pH was adjusted to ~3 by the addition of 0.1 M aq. HCl solution. The solution was stirred for 10 mins at room temperature, followed by the addition of 0.33 g EDC •HCl (1.7 mmol) and the pH was maintained at ~3 by the addition of 0.1 M aq. HCl solution. The solution was stirred at room temperature for 10 mins followed by the addition of 0.88 g compound 8 which was dissolved in DMSO or DMF. The mixture was stirred at room temperature for 48 h. The wound dressings were filtered and were washed with ethanol. To ensure the full removal of any non-coupled amide (8), the foam samples were resuspended in ethanol, stirred for 10 mins and filtered, and this process was repeated until the amide (8) was not detectable from the filtrate (this could be maintained by TLC or HPLC evaluation). The samples were dried in a vacuum oven for 3-4 h.
(§2) The aqueous solution of 3a or 3b was prepared by the following: the desired amount of the enzymatic substrate (3.0 mg for 300 mg/L, 6.0 mg for 600 mg/L, 9.0 mg for 900 mg/L, 15.0 mg for 1500 mg/L, and 30.0 mg for 3000 mg/L) was weighed out on a 4 decimal place balance within ±0.3 mg error limit into a 10 mL volumetric flask and was adjusted to 10.0 mL with DI water. The solutions were absorbed into the foam samples and dried in a vacuum oven at 40° C. overnight.
To model fluid exudate from a chronic wound, the wound dressing made according to ‘Modification of ActivHeal® Alginate’, above, was placed into an agar plate and the test pathogen was smeared over the surface of the agar.
The enzymatic substrates were tested in 4 different concentrations (300, 600, 900 and 3000 mg/L) using DI water as a solvent, and the solutions were absorbed into the wound dressing samples, which were dried overnight under vacuum at 40° C.
Two Gram negative strains (Escherichia coli—EC and Pseudomonas aeruginosa—PSA) and a Gram positive bacteria (Staphylococcus aureus—SA) were evaluated against the dimethyl (3a) and the diethyl (3b) substituted substrate. The overnight cultures were directly smeared from LB broth onto Columbia blood agar without measuring the OD. The wound dressings with the enzymatic substrate absorbed were placed onto the agar and were incubated overnight (see FIGS. 2-7).

Pseudomonas aeruginosa = test: Microbiological evaluation of standardised bacterial suspensions, modified wound dressing with absorbed substrate on agar; design: key to Observable colour change: − indicates no colour change; +− indicates relatively discernible blue colour change; + indicates a moderately strong blue colour change; ++ indicates a strong blue colour change
Description: as §1, §2
(§3) Bacterial strains were routinely cultured from working stocks in Tryptic Soy Broth (TSB) and incubated at 37° C. overnight with shaking at 150 RPM. Overnight cultures were centrifuged at 3000×g for 5 minutes, the supernatant discarded, and the pellet resuspended in 10 mL phosphate buffered saline (PBS). Bacterial inoculums were standardised by optical density at 600 nm on an Amersham Biosciences Ultrospec 10 spectrophotometer (Amersham Biosciences, Amersham, UK) to contain between 1 and 3×10^8 CFU/mL.
(§4) However, rapid evaluation of lower bacteria concentrations is essential for the desired clinical application. […] The solutions were absorbed into the wound dressing samples, which were dried overnight under vacuum at 40° C.
(§5) Two Gram negative strains (Escherichia coli—EC and Pseudomonas aeruginosa—PSA) and a Gram-positive bacterium (Staphylococcus aureus—SA) were evaluated. The bacteria were incubated overnight, centrifuged at 3000×g for 5 mins, the supernatant was discarded, and the residue pellets were resuspended in 10 mL PBS. The inoculums were standardised by measuring the optical density at 600 nm to assure a 1-3×10^8 CFU/mL. The standardised solutions were further diluted to prepare 1-3×10^6 and 1-3×10^4 CFU/mL suspension. 1×10^6 CFU would be an ideal breakpoint for a positive result, as this concentration coincides well with a level of colonisation that would likely go on to produce an infection.
(§6) 100 μL bacterial suspensions were smeared over agar plates. Wound dressing samples were added to the top of the agar and were rolled over a few times (to ensure a full coverage and to ease the visibility of the colour change). The plates were incubated at 37° C., and the results were recorded after 24 h, after 48 h, after 72 h. The results are shown in Table 3-5; − indicates no colour change, +− indicates relatively discernible blue colour change, + indicates a moderately strong blue colour change and ++ indicates a strong blue colour change.

Staphylococcus aureus [2] = test: as above; design: key to Observable colour change: − indicates no colour change; +− indicates relatively discernible blue colour change; + indicates a moderately strong blue colour change; ++ indicates a strong blue colour change; conditions: for colour change: SA
Description: as §1, §2, §3, §4, §5, §6

CCN(CC)c1ccc(NC(=O)[C@@H](N)CC(C)C)cc1.Cl [3b, (2S)-2-amino-N-[4-(diethylamino)phenyl]-4-methyl-pentanamide hydrochloride]
Observable colour change (Staphylococcus aureus [1]; substrate 300 mg/L): None
Observable colour change (Staphylococcus aureus [1]; substrate 600 mg/L): None
Observable colour change (Staphylococcus aureus [1]; substrate 900 mg/L): None
Observable colour change (Staphylococcus aureus [1]; substrate 3000 mg/L, hydrochloride): produced the colour change and Blue
Observable colour change (Pseudomonas aeruginosa; PSA 10^4, substrate 300 mg/L, 24 h at 37° C.): −
Observable colour change (Pseudomonas aeruginosa; PSA 10^4, substrate 300 mg/L, 48 h at 37° C.): −
Observable colour change (Pseudomonas aeruginosa; PSA 10^4, substrate 300 mg/L, 72 h at 37° C.): +
Observable colour change (Pseudomonas aeruginosa; PSA 10^4, substrate 900 mg/L, 24 h at 37° C.): −
Observable colour change (Pseudomonas aeruginosa; PSA 10^4, substrate 900 mg/L, 48 h at 37° C.): −
Observable colour change (Pseudomonas aeruginosa; PSA 10^4, substrate 900 mg/L, 72 h at 37° C.): ++
Observable colour change (Pseudomonas aeruginosa; PSA 10^4, substrate 1500 mg/L, 24 h at 37° C.): −
Observable colour change (Pseudomonas aeruginosa; PSA 10^4, substrate 1500 mg/L, 48 h at 37° C.): −
Observable colour change (Pseudomonas aeruginosa; PSA 10^4, substrate 1500 mg/L, 72 h at 37° C.): ++
Observable colour change (Pseudomonas aeruginosa; PSA 10^6, substrate 300 mg/L, 24 h at 37° C.): −
Observable colour change (Pseudomonas aeruginosa; PSA 10^6, substrate 300 mg/L, 48 h at 37° C.): −
Observable colour change (Pseudomonas aeruginosa; PSA 10^6, substrate 300 mg/L, 72 h at 37° C.): +
Observable colour change (Pseudomonas aeruginosa; PSA 10^6, substrate 900 mg/L, 24 h at 37° C.): −
Observable colour change (Pseudomonas aeruginosa; PSA 10^6, substrate 900 mg/L, 48 h at 37° C.): +−
Observable colour change (Pseudomonas aeruginosa; PSA 10^6, substrate 900 mg/L, 72 h at 37° C.): ++
Observable colour change (Pseudomonas aeruginosa; PSA 10^6, substrate 1500 mg/L, 24 h at 37° C.): −
Observable colour change (Pseudomonas aeruginosa; PSA 10^6, substrate 1500 mg/L, 48 h at 37° C.): −
Observable colour change (Pseudomonas aeruginosa; PSA 10^6, substrate 1500 mg/L, 72 h at 37° C.): +
colour change (Pseudomonas aeruginosa; PSA 10^8, 10^6 or 10^4 CFU, after 72 h, every tested substrate concentration): moderate or strong blue colour changes
Observable colour change (Pseudomonas aeruginosa; PSA 10^8, substrate 300 mg/L, 24 h at 37° C.): −
Observable colour change (Pseudomonas aeruginosa; PSA 10^8, substrate 300 mg/L, 48 h at 37° C.): +
Observable colour change (Pseudomonas aeruginosa; PSA 10^8, substrate 300 mg/L, 72 h at 37° C.): +
Observable colour change (Pseudomonas aeruginosa; PSA 10^8, substrate 900 mg/L, 24 h at 37° C.): −
Observable colour change (Pseudomonas aeruginosa; PSA 10^8, substrate 900 mg/L, 48 h at 37° C.): ++
Observable colour change (Pseudomonas aeruginosa; PSA 10^8, substrate 900 mg/L, 72 h at 37° C.): ++
Observable colour change (Pseudomonas aeruginosa; PSA 10^8, substrate 1500 mg/L, 24 h at 37° C.): −
Observable colour change (Pseudomonas aeruginosa; PSA 10^8, substrate 1500 mg/L, 48 h at 37° C.): ++
Observable colour change (Pseudomonas aeruginosa; PSA 10^8, substrate 1500 mg/L, 72 h at 37° C.): ++
colour change (Pseudomonas aeruginosa; PSA 10^8 CFU, 10^6 CFU, and 104 CFU, substrate 900 mg/L, printed in the 48 h paragraph): strong blue colour changes
colour change (Pseudomonas aeruginosa; PSA 10^8 CFU, after 48 h incubation, substrate 900 or 1500 mg/L): strong blue colour changes
Observable colour change (Staphylococcus aureus [2]; SA 10^4, substrate 300 mg/L, 24 h at 37° C.): −
Observable colour change (Staphylococcus aureus [2]; SA 10^4, substrate 300 mg/L, 48 h at 37° C.): −
Observable colour change (Staphylococcus aureus [2]; SA 10^4, substrate 300 mg/L, 72 h at 37° C.): −
Observable colour change (Staphylococcus aureus [2]; SA 10^4, substrate 900 mg/L, 24 h at 37° C.): −
Observable colour change (Staphylococcus aureus [2]; SA 10^4, substrate 900 mg/L, 48 h at 37° C.): −
Observable colour change (Staphylococcus aureus [2]; SA 10^4, substrate 900 mg/L, 72 h at 37° C.): −
Observable colour change (Staphylococcus aureus [2]; SA 10^4, substrate 1500 mg/L, 24 h at 37° C.): −
Observable colour change (Staphylococcus aureus [2]; SA 10^4, substrate 1500 mg/L, 48 h at 37° C.): −
Observable colour change (Staphylococcus aureus [2]; SA 10^4, substrate 1500 mg/L, 72 h at 37° C.): −
Observable colour change (Staphylococcus aureus [2]; SA 10^6, substrate 300 mg/L, 24 h at 37° C.): −
Observable colour change (Staphylococcus aureus [2]; SA 10^6, substrate 300 mg/L, 48 h at 37° C.): −
Observable colour change (Staphylococcus aureus [2]; SA 10^6, substrate 300 mg/L, 72 h at 37° C.): −
Observable colour change (Staphylococcus aureus [2]; SA 10^6, substrate 900 mg/L, 24 h at 37° C.): −
Observable colour change (Staphylococcus aureus [2]; SA 10^6, substrate 900 mg/L, 48 h at 37° C.): −
Observable colour change (Staphylococcus aureus [2]; SA 10^6, substrate 900 mg/L, 72 h at 37° C.): −
Observable colour change (Staphylococcus aureus [2]; SA 10^6, substrate 1500 mg/L, 24 h at 37° C.): −
Observable colour change (Staphylococcus aureus [2]; SA 10^6, substrate 1500 mg/L, 48 h at 37° C.): −
Observable colour change (Staphylococcus aureus [2]; SA 10^6, substrate 1500 mg/L, 72 h at 37° C.): +−
Observable colour change (Staphylococcus aureus [2]; SA 10^8, substrate 300 mg/L, 24 h at 37° C.): −
Observable colour change (Staphylococcus aureus [2]; SA 10^8, substrate 300 mg/L, 48 h at 37° C.): −
Observable colour change (Staphylococcus aureus [2]; SA 10^8, substrate 300 mg/L, 72 h at 37° C.): −
Observable colour change (Staphylococcus aureus [2]; SA 10^8, substrate 900 mg/L, 24 h at 37° C.): −
Observable colour change (Staphylococcus aureus [2]; SA 10^8, substrate 900 mg/L, 48 h at 37° C.): −
Observable colour change (Staphylococcus aureus [2]; SA 10^8, substrate 900 mg/L, 72 h at 37° C.): −
Observable colour change (Staphylococcus aureus [2]; SA 10^8, substrate 1500 mg/L, 24 h at 37° C.): −
Observable colour change (Staphylococcus aureus [2]; SA 10^8, substrate 1500 mg/L, 48 h at 37° C.): +−
Observable colour change (Staphylococcus aureus [2]; SA 10^8, substrate 1500 mg/L, 72 h at 37° C.): +−
colour change (Staphylococcus aureus [2]; 48 h paragraph, substrate 1500 mg/L): weak, but discernible colour change
colour change (Staphylococcus aureus [2]; after 72 h, substrate 1500 mg/L): weak, hardly visible colour change
